For one data set, the target named is hERG channel (Homo sapiens, UniProt Q12809). Nature of the data set: cell-based.
The target of data set [1] is T1, human sphingosine-1-phosphate receptor 1 (S1P1) (Homo sapiens, UniProt P21453). Nature of the data set: Inhibition of cAMP production (HTRF cAMP HiRange), S1P1 CHO-K1 cells. It is filed as cell-based. Particulars: for Emax: CHO-K1, efficacy normalized to maximum efficacy of fingolimod, read-out: hS1P1 CAMP SPAN; for EC50: read-out: hS1P1 CAMP pEC50 (converted). An outline of the steps: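 Intracellular cAMP changes read by TR-FRET (HTRF HiRange, 1 h room temperature) after 30 min compound exposure at 37 °C. Cells: overnight-plated CHO-K1 stably expressing tagged human S1P1 with EA-β-arrestin2. Responses normalized to fingolimod.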
Target sequence in this assay (P21453 whole entry): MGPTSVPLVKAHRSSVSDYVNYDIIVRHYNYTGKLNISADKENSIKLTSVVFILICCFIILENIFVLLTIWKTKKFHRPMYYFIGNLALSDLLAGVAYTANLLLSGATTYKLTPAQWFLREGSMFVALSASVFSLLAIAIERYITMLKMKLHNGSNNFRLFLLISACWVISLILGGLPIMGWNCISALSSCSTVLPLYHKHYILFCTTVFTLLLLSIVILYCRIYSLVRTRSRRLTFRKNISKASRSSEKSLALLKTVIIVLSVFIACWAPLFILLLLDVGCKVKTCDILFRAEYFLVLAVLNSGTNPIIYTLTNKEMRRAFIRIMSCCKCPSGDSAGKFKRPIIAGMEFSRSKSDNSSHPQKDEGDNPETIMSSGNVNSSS
Background: Changes in cAMP serve as a functional read-out for many G protein-coupled receptors.

The target in data set [2] is T1, human sphingosine-1-phosphate receptor 1 (S1P1). In words: β-Arrestin2 recruitment assay (PathHunter), S1P1 CHO-K1 cells. It counts as cell-based. To be noted: for Emax: efficacy normalized to maximum efficacy of fingolimod, read-out: hS1P1 B-arrestin2 SPAN; for EC50: β-arrestin2 recruitment, read-out: hS1P1 B-arrestin2 pEC50 (converted). In a few lines:
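Agonist-driven β-arrestin2 recruitment measured by β-galactosidase complementation after 60 min compound exposure at 37 °C and 1 h detection at room temperature. Cells: stable CHO-K1 line expressing tagged human S1P1 with EA-β-arrestin2, plated the night before. Data expressed relative to fingolimod.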
Target sequence in this assay (P21453 whole entry): as above
Target sequence in this assay (P32121 whole entry partner): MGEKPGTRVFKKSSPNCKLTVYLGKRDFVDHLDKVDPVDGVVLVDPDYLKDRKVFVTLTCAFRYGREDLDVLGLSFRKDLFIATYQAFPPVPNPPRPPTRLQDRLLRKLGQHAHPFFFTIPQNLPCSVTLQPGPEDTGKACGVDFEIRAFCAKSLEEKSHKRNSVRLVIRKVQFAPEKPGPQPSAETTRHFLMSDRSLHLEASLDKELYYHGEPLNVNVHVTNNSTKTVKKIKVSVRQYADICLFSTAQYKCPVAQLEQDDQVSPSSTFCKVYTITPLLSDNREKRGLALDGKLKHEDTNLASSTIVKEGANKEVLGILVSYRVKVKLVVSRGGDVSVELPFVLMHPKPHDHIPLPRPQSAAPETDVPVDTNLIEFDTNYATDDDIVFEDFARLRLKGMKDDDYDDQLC
(Recruitment of arrestin is a read-out of receptor activation apart from second messengers.)

Data set [3] addresses human sphingosine-1-phosphate receptor 2 (S1P2) (Homo sapiens, UniProt O95136). In words: Selectivity: inositol monophosphate production (IP-one), S1P2 CHO-K1 cells. To be noted: for Emax: CHO-K1, efficacy normalized to maximal efficacy of CYM5520, read-out: hS1P2 IP-one SPAN; for EC50: inositol monophosphate accumulation, read-out: hS1P2 IP-one pEC50 (converted). It is filed as cell-based. On the procedure: (§1) Cell Culturing and Assay Plating Cell lines were cultured in AssayComplete™ Media 6 (DiscoverX Corporation, Cat #: 920018GF2) at 37° C. and 5% CO2 in a humidified CO2 and temperature-controlled incubator. To begin assay plating, cells were washed with Dulbecco's phosphate buffered saline (CellGro, Cat #: 21-031-CV) and lifted from the culturing flask by incubation (37° C., 5 min) with CellStripper (Cellgro, Cat #: 25-056-CI). […] Plated cells were incubated overnight at 37° C. and 5% CO2 in a humidified CO2 and temperature-controlled incubator. Detecting Inhibition of cAMP Production
S1P2 Agonist-promoted G-protein responses were determined by measuring changes in intracellular inositol monophosphate using the IP-one TB kit (CisBio, Cat #: 62IPAPEJ) based on time-resolved fluorescence resonance energy transfer (TR-FRET) technology. AssayComplete™ Cell Plating 2 Reagent was removed and replaced with 1× IP-one stimulation buffer (as per manufacturer's instructions) along with test or control compounds at the desired concentrations.
Following a 60-minute incubation at 37° C. and 5% CO2 in a humidified CO2 and temperature-controlled incubator, the components of the IP-one TB kit were added as per the manufacturer's instructions. After an hour incubation at room temperature, plates were analyzed by a BMG PheraStar microplate reader.
(§2) These values are normalized to fimgolimod, a known agonist of the sphingosine-1-phosphate 3 and 5 receptor or CYM5520, a known agonist of the sphingosine-1-phosphate 2 receptor. The tables also include potency values (pEC50) for modulating discrete receptor-mediated activities (inhibition of cAMP production or inositol monophosphate accumulation).

For data set [4], the target named is human sphingosine-1-phosphate receptor 3 (S1P3) (Homo sapiens, UniProt Q99500). In words: Selectivity: inhibition of cAMP production (HTRF), S1P3 CHO-K1 cells. It counts as cell-based. Particulars: for Emax: CHO-K1, efficacy normalized to maximal efficacy of fimgolimod, read-out: hS1P3 cAMP SPAN; for EC50: inhibition of cAMP production, read-out: hS1P3 cAMP pEC50 (converted). On the procedure: as §1
human sphingosine-1-phosphate receptor 3 (S1P3), sequence (Q99500 whole entry): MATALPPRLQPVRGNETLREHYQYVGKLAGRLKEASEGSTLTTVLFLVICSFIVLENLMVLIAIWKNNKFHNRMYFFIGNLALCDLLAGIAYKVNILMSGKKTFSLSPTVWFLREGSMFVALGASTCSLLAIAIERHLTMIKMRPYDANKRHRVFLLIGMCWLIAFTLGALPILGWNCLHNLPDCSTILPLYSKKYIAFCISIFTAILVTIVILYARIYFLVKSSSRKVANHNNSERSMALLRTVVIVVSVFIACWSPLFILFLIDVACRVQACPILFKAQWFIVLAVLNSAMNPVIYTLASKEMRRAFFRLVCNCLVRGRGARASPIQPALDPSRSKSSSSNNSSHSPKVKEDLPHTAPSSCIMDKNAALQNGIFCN
(§3) S1P3 and S1P5 Agonist-promoted G-protein responses were determined by measuring changes in intracellular cAMP using the HTRF® cAMP HiRange kit (CisBio, Cat #: 62AM6PEJ) based on time-resolved fluorescence resonance energy transfer (TR-FRET) technology. […] Following a 30-minute room temperature incubation the components of the cAMP HiRange kit were added as per the manufacturer's instructions. After an hour incubation at room temperature, plates were analyzed by a BMG PheraStar microplate reader.
as §2

The target in data set [5] is sphingosine-1-phosphate receptor 5 (S1P5) (Homo sapiens, UniProt Q9H228). In words: Selectivity: inhibition of cAMP production (HTRF), S1P5 CHO-K1 cells. Particulars: for Emax: CHO-K1, efficacy normalized to maximal efficacy of fimgolimod, read-out: hS1P5 cAMP SPAN; for EC50: inhibition of cAMP production, read-out: hS1P5 cAMP pEC50 (converted). It is filed as cell-based. The method, then: as §1, §3, §2
sphingosine-1-phosphate receptor 5 (S1P5), sequence (Q9H228 whole entry): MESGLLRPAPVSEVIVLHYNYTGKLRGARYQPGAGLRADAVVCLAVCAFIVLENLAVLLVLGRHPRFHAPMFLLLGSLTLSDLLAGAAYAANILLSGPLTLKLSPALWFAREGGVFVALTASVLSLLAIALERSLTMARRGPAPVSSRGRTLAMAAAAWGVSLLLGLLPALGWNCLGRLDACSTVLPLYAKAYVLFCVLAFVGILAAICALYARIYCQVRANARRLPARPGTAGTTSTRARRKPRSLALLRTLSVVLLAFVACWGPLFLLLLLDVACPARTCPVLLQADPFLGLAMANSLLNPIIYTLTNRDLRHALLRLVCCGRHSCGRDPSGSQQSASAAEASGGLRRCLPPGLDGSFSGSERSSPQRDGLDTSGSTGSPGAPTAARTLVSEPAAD

For data set [6], the system named is peripheral blood lymphocytes. Nature of the data set: Lymphopenia: peripheral blood lymphocyte counts, acute and chronic s.c. dosing. It is filed as in vivo. To be noted: c57bl/6 mice. The method, then:
Compounds were tested for changes in peripheral blood lymphocytes in C57bl/6 mice. In acute studies, animals (n=5/group) were dosed subcutaneously with test compound at a dose of 3 mg/kg. Animals were sacrificed at specific time points and […] of whole blood was collected in EDTA (K2) Eppendorf tubes. Blood was stored on ice and shipped immediately overnight delivery to Charles River Laboratories for analysis. CRL ran samples through their WBC/differential panel on an Advia 120 instrument. We received peripheral lymphocyte counts (10^3 cells/μl) for each blood sample. Treatment group means were compared to a vehicle treatment group for statistical significance. In chronic studies, animals (n=6-8/group) were dosed subcutaneously for three to seven days with test compound at doses that were at least 5-fold higher than the efficacious dose in pharmacology/behavioral assays. On the last day, animals were sacrificed 45 minutes to 6 hrs after the final dose. Whole blood was collected and analyzed as described for acute studies. […]

In data set [7] the test system is Corneal Kindled Seizure Model. Nature of the data set: Corneal Kindled Seizure Model (CKM), mouse. It is filed as in vivo. Details: key to Average Seizure Scores: seizure stage score; Stage 5 = rearing and falling, generalized clonic seizure. On the procedure:
Compounds are tested for efficacy in Corneal Kindled Seizure Model (CKM) Mouse. The pharmacological profile of the corneal kindled mouse is consistent with human partial epilepsy and effectively identifies the anticonvulsant potential of useful compounds for this condition, such as levetiracetam. Male C57BL/6 mice are kindled electrically with 3 sec stimulation, 3 mA, 60 Hz, and corneal electrodes to a criterion of 5 consecutive Stage 5 seizures (facial clonus and head nodding progressing to forelimb clonus, and finally rearing and falling accompanied by a generalized clonic seizure). After receiving twice daily corneal stimulations, mice typically reach the first Stage 5 seizure between approximately 10-14 days. […] Fully kindled mice are then stimulated every-other day until all other mice within the group reach the criterion of 5 consecutive Stage 5 seizures. Any mouse not achieving the fully kindled state is not included in any evaluation of investigational compounds. Testing of investigational compounds commences at least 5-7 days after the last stimulation. Mice are stimulated on the day prior to any drug evaluation to ensure that all mice to be used in the drug study will present with a Stage 5 seizure. […] After testing, the corneal kindled animals are returned to their home cage. Unlike the acute seizure tests conducted by the ETSP, each corneal kindled mouse is allowed at least 3-4 days between tests to “washout” any investigational compound after testing. Compound 469 was tested in the method described in Example 5. The data for Compound 469 is illustrated in Tables 1-4.

Setting [8] is: inhibition of cAMP production, potency.
Where [9] appears, read: CHO-K1, β-arrestin2 recruitment.
The mark [10] stands for this setting: inhibition of cAMP production, S1P1.
[11] abbreviates: 3 mg/kg s.c., 0.5 hour, Experiment 1.
Setting [12] is: 3 mg/kg s.c., 1 hour, Experiment 1.
Where [13] appears, read: 5 mg/kg s.c., 0.5 hour, Experiment 1.
Where [14] appears, read: 5 mg/kg s.c., 1 hour, Experiment 1.

The term pIC50 denotes −log10 of the IC50, conventionally taken in molar units. A word on the ED50: it is the dose that gives a 50% effect, or the effect in half of the subjects.

pIC50: −log10 of the molar value. Some results are limits rather than exact numbers.

hERG channel, sequence (Q12809 whole entry): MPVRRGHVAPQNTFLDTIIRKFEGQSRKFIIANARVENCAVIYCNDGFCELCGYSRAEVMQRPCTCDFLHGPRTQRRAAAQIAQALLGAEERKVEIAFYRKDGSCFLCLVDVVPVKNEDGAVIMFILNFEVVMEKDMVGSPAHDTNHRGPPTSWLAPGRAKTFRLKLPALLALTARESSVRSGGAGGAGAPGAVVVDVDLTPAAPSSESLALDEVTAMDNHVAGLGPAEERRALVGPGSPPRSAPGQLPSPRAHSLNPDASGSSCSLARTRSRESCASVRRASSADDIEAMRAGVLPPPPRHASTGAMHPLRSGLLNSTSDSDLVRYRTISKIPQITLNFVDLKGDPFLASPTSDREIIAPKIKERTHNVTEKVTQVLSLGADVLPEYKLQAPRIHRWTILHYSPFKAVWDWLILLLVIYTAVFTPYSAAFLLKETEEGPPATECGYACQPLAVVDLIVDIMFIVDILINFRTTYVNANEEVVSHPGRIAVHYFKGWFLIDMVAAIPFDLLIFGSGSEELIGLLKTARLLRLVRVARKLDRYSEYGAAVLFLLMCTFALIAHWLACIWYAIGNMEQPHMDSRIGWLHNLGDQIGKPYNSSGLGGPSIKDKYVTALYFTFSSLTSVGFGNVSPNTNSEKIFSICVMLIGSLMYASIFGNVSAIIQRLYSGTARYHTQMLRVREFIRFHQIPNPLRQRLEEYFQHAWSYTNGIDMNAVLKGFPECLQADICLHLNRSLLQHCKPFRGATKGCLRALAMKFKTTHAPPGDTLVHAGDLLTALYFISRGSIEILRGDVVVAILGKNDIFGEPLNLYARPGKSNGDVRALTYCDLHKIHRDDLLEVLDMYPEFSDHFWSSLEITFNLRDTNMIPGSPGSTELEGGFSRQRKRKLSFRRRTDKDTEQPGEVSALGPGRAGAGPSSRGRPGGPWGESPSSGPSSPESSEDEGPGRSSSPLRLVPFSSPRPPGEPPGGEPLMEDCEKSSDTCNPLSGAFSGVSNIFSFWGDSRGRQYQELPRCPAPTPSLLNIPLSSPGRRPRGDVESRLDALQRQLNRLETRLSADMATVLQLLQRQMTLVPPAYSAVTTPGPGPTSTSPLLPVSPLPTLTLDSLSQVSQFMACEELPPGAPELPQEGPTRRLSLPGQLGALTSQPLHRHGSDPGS
human sphingosine-1-phosphate receptor 2 (S1P2), sequence (O95136 whole entry): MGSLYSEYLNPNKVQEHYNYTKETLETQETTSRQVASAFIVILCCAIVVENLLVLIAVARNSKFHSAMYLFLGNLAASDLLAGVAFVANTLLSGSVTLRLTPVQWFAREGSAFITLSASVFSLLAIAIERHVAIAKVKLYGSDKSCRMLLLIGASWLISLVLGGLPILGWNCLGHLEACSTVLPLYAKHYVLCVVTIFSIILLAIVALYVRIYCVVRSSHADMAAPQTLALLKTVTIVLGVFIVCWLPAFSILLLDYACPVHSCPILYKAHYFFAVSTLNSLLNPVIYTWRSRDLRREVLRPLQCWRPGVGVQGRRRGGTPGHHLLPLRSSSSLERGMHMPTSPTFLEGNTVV

Take `CC(C)Oc1ccc(-c2ncc(-c3ccccn3)cn2)cc1C#N` [Compound 742, 2-isopropoxy-5-(5-(pyridin-2-yl)pyrimidin-2-yl)benzonitrile]: on hERG channel, the pIC50 was below 5.00.

Consider `Cc1ccccc1-c1nc(-c2ccc3c(c2)nnn3C(C)C)no1` [Compound 99, 3-(1-isopropyl-1H-benzo[d][1,2,3]triazol-5-yl)-5-(o-tolyl)-1,2,4-oxadiazole], for which the Emax was above 75% in data set [1] (inhibition of cAMP production); above 75% in data set [2] (setting [9]); below 50% in data set [3]; below 50% in data set [4]; above 50% in data set [5]. In addition, the EC50 in data set [1] (setting [8]) was below 0.316 µM; in data set [2] (potency), below 10 µM; in data set [3], above 10 µM; in data set [4], above 10 µM; in data set [5] it was above 10 µM. The “Lymphopenia effect (peripheral blood lymphocytes)” value (“Lymphopenia effect” below) in data set [6] (6 mg/kg sc, 7 days) was “no change: 6 mg/kg, 7 days”.

As to `CC(C)Nc1ccc(-c2ncc(-c3ccnc(O)c3)cn2)cc1C#N` [Compound 743, 5-(5-(2-hydroxy-pyridin-4-yl)pyrimidin-2-yl)-2-(isopropyl-amino)benzonitrile], the pIC50 against hERG channel is below 5.00.

Consider `CC(C)n1nnc2cc(-c3nc(-c4cccc5c4OCO5)no3)ccc21` [Compound 32, 3-(benzo[d][1,3]dioxol-4-yl)-5-(1-isopropyl-1H-benzo[d][1,2,3]triazol-5-yl)-1,2,4-oxadiazole], for which the Emax in data set [1] (inhibition of cAMP production) was above 75%; in data set [2] (setting [9]) it was below 75%; in data set [3], below 50%; in data set [4], below 50%; in data set [5], below 50%. In addition, the EC50 in data set [1] (setting [8]) is below 0.316 µM; in data set [2] (potency), below 10 µM; in data set [3], above 10 µM; in data set [4], above 10 µM; in data set [5], above 10 µM. Moreover, the “Lymphopenia effect” value in data set [6] (6 mg/kg sc, 7 days) is recorded as “no change: 6 mg/kg, 7 days”.

For `CC(C)Oc1ccc(-c2ncc(-c3cccnc3)cn2)cc1C#N` [Compound 738, 2-isopropoxy-5-(5-(pyridin-3-yl)pyrimidin-2-yl)benzonitrile], the pIC50 on hERG channel was below 5.00.

Consider `CCC1(CC)CC(=O)c2cc(-c3nc(-c4cn[nH]c4)no3)ccc2O1` [Compound 469, 6-(3-(1H-pyrazol-4-yl)-1,2,4-oxadiazol-5-yl)-2,2-diethyl-chroman-4-one], for which the EC50 in data set [1] (setting [10]) is below 0.316 µM. Besides, the “Average Seizure Scores” value in data set [7] (1 mg/kg, 2 hrs, Experiment 2) was 3.25; in data set [7] (2.5 mg/kg, 2 hrs, Experiment 2), 3.38; in data set [7] (setting [11]), 4.5; in data set [7] (setting [12]) it was 3.38; in data set [7] (setting [13]), 4; in data set [7] (setting [14]), 3.38. The “Average Seizure Scores” value in data set [7] (5 mg/kg, 2 hrs, Experiment 2) was found to be 2.5; in data set [7] (10 mg/kg, 1 hour), 2.38; in data set [7] (10 mg/kg, 2 hrs) it was 0.63. Besides, the “N/F (number of animals protected / total number tested)” value in data set [7] (1 mg/kg, 2 hrs, Experiment 2) is on record as 1/8; in data set [7] (2.5 mg/kg, 2 hrs, Experiment 2) it was 2/8; in data set [7] (setting [11]), 0/8; in data set [7] (setting [12]) it was 1/8; in data set [7] (setting [13]), 0/8; in data set [7] (setting [14]), 1/8. Further, the “N/F (number of animals protected / total number tested)” value is given as 3/8 in data set [7] (5 mg/kg, 2 hrs, Experiment 2); 2/8 in data set [7] (10 mg/kg, 1 hour); 7/8 in data set [7] (10 mg/kg, 2 hrs). Besides, in data set [7] (Corneal Kindled Seizure Model, mouse), the effect on seizures result is “can reduce seizures”. The ED50 in data set [7] (Corneal Kindled Seizure Model, mouse, 2 hrs time point) was determined as 6.2 mg/kg. Besides, the “Lymphopenia effect” value in data set [6] (3.7 mg/kg sc, 3 days) was “no change: 3.7 mg/kg, 3 days”.

As to `COc1ccccc1-c1nc(-c2ccc3c(c2)nnn3C(C)C)no1` [Compound 287, 3-(1-isopropyl-1H-benzo[d][1,2,3]triazol-5-yl)-5-(2-methoxy-phenyl)-1,2,4-oxadiazole], the Emax was above 75% in data set [1] (inhibition of cAMP production); above 75% in data set [2] (setting [9]); below 50% in data set [3]; below 50% in data set [4]; below 50% in data set [5]. Further, the EC50 was below 0.316 µM in data set [1] (setting [8]); below 10 µM in data set [2] (potency); above 10 µM in data set [3]; above 10 µM in data set [4]; above 10 µM in data set [5]. For the same compound, the “Lymphopenia effect” value in data set [6] (6 mg/kg sc, 7 days) is given as “no change: 6 mg/kg, 7 days”.

For the compound `N#Cc1cc(-c2nc(-c3ccc4oc(=O)[nH]c4c3)no2)ccc1NCC1CC1` [Compound 423, 2-((cyclopropyl-methyl)amino)-5-(3-(2-oxo-2,3-dihydrobenzo[d]oxazol-5-yl)-1,2,4-oxadiazol-5-yl)benzonitrile], the Emax in data set [1] is above 75%; in data set [2] (CHO-K1) it was above 75%; in data set [3], below 50%; in data set [4], below 50%. The EC50 is below 0.316 µM in data set [1] (setting [10]), below 10 µM in data set [2] (S1P1), below 10 µM in data set [3] and below 10 µM in data set [4]. Besides, the “Lymphopenia effect” value in data set [6] (6 mg/kg sc, 7 days) is reported as “no change: 6 mg/kg, 7 days”.

The values above are taken from patent US20230114241A1, “METHODS OF TREATING EPILEPSY USING THE SAME” (Trevena, Inc., priority 2019, published 2023).
